# Assay results: patent US20100068747A1, “Generic Assay for Monitoring Endocytosis” (Evotec Technologies GmbH, priority 2005, published 2010)
# Entries after “also recorded” stand apart in the source; their conditions may differ.
# Tests used:
# CHO/ETAR cells = assay: Lectin labeling of fixed cells, CHO/ETAR; type: cell-based; settings: TRITC-lectin 10 nM and 20 nM
# Experimental: (§1) Lectin labeling of fixed cells was conducted as follows: To detach confluent cells in order to prepare experiments for internalization studies, cells were always treated with EDTA solution instead of trypsin solution. For all seeding, washing, and labeling steps in 96-well plates a working volume of 100 μl per well was assessed. Cells were seeded out into a 96-well plate at different concentrations. U2OS/ETAR-GFP suspensions were adjusted to yield 2*10^4 cells/well, both of the CHO cell lines must be at 2.5*10^4 cells/well. Cells became confluent after 24 hours of incubation. In the following, they were washed with phosphate buffered saline (PBS) and fixed with 3% PFA for 20 minutes at RT. Then, cells were washed again with PBS and incubated in 10 nM and 20 nM solutions of each TRITC-lectin candidate in PBS, respectively. Again, cells were washed with PBS to remove excess lectin, and wells were refilled with PBS for analysis. For specificity controls, lectin solutions were incubated for 30 minutes prior to the application with an excess of the monosaccharide that represents the respective glyco-epitope.
# (§2) The following microscopy and image analysis techniques were employed. When utilizing the epifluorescence microscope magnifications were adjusted according to the purpose of observation, e.g. single cell vs. cell collective. Concerning the filters U-MNU was used for Hoechst, U-MSWB for GFP, and U-N41007 for TRITC detection. Hoechst images were taken at 50 ms exposure time, GFP images at 100 to 200 ms and TRITC images needed 500 to 1000 ms. Overlay images were assembled with AnalySIS and tuned in color intensity to obtain the desired color contrast. Images taken to compare two experimental conditions, e.g. control vs. stimulus, featured identical exposure parameters. If possible, well areas were chosen that reflect similar states of confluence. Utilizing the Opera confocal fluorescence imager, the instrument was calibrated running standard methods for skew cropping (spatial camera alignments) and camera intensity normalization.
# [1] = target: T1, endothelin A receptor (ETAR) (Homo sapiens, UniProt P25101); assay: Lectin labeling of live cells with receptor targeted stimulation, CHO/ETAR; type: cell-based, Chinese hamster; settings: endothelin 1 stimulation
# T1 construct: expressed in transfected cells; host or cells: CHO-K1 cell line clone #19, prepared in-house
# T1 sequence (P25101 21-427): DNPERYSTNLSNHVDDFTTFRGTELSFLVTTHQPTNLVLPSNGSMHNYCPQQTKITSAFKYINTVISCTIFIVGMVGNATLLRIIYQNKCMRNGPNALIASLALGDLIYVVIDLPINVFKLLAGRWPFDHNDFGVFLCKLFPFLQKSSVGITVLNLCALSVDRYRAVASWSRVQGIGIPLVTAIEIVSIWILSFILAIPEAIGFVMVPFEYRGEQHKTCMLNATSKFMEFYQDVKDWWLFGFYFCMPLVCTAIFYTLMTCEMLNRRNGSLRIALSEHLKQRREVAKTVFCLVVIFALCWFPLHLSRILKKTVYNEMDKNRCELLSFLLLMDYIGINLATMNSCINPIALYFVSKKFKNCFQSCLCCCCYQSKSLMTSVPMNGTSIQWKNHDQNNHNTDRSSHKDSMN
# Experimental: With regard to lectin labeling of live cells with receptor target stimulation, lyophilized PAR-2 peptide was resuspended in 20 mM HEPES with 0.1% BSA at 4 mM. […] The live cell labeling protocol was applied as described above. Additionally, endothelin and PAR-2 agonist peptide were added to the assay medium employed after the lectin labeling step at concentrations of 40 nM and 100 μM, respectively. For controls, same amount of resuspension liquid without agonist was supplemented. Instantly, fluorescence signals were monitored.
# U2OS/ETAR-GFP cells = assay: Lectin labeling of live cells, U2OS/ETAR-GFP; type: cell-based, human; settings: TRITC-lectin, 10 nM at maximum
# Experimental: (§3) Lectin labeling of live cells was conducted as follows: Cells were seeded as described above. After 24 hours cells were washed once with PBS and incubated in the incubator for another 2 hours in the respective standard medium without serum supplement to deprive them of serum factor mediated stimuli. This step was termed starvation period. Subsequently, cells were washed gently with PBS and incubated with 37° C. tempered assay medium comprised of Hank's Balanced Salt Solution (HBSS) pH 7.4, containing 20 mM HEPES and 30 mM D-glucose. The plate was left at RT for 30 minutes to slowly level its temperature and, thus, avoid capturing of temperature drop induced membrane dynamics. This period was termed leveling period. Then, assay medium was withdrawn and wells refilled with TRITC-lectin solutions at RT to start cell labeling. Several lectin concentrations in the low nano-molar range were tested. Molar concentrations were calculated from the data provided by Vector Labs. The plate was placed on a rotating shaker at low revolutions for 10 minutes while incubating. The start of the lectin incubation is referred to as assay starting point with t=0 min. After the 10 min incubation period the cells were gently washed with PBS and wells refilled with assay buffer at RT. Instantly thereafter, fluorescence signals were monitored predominately using the epifluorescence microscope.
# as §2
# CHO/PAR-2 cells [2] = assay: Lectin labeling of live cells, CHO/PAR-2; type: cell-based; settings: TRITC-lectin, 10 nM at maximum
# Experimental: as §3, §2
# CHO/PAR-2 cells [3] = assay: Lectin labeling of fixed cells, CHO/PAR-2; type: cell-based; settings: TRITC-lectin 10 nM and 20 nM
# Experimental: as §1, §2
substance,measurement,setting,value
succinylated Triticum vulgaris (wheat germ) agglutin [sWGA],Staining of CHO/ETAR,CHO/ETAR cells,cell surface
same,"early spot formation, time after stimulation",[1],20 to 30 min
same,Live cell staining of U2OS/ETAR-GFP,U2OS/ETAR-GFP cells,spot formation
same,Live cell staining of CHO/PAR-2,CHO/PAR-2 cells [2],spot formation
same,Staining of CHO/PAR-2,CHO/PAR-2 cells [3],signals clearly marking individual cells; also recorded: cell surface
